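Where inhibition never reached the appropriate level, the endpoint shown equals the highest concentration tested. Otherwise, values were interpolated linearly from a five-concentration, 48-hour dose response in 96-well plates. At the GI50, growth is halved. At the TGI there is no net growth.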
Key:
Assay in all cases: NCI tumour cell line growth inhibition, 48 h
[1] = tested on: MDA-MB-435
[2] = tested on: SF-295 CNS
[3] = tested on: K-562 leukemia
[4] = tested on: OVCAR-5 ovarian
[5] = tested on: NCI-H23 lung
[6] = tested on: PC-3 prostate
[7] = tested on: U251 CNS
[8] = tested on: T-47D breast
[9] = tested on: SK-MEL-2 melanoma
[10] = tested on: HCT-116 colon
[11] = tested on: UACC-62 melanoma
[12] = tested on: NCI/ADR-RES ovarian
[13] = tested on: SNB-19 CNS
[14] = tested on: DU-145 prostate
[15] = tested on: HL-60(TB) leukemia
[16] = tested on: SK-MEL-5 melanoma
[17] = tested on: HOP-62 NSCLC
[18] = tested on: MOLT-4 leukemia
[19] = tested on: HCT-15 colon
[20] = tested on: CAKI-1 renal
[21] = tested on: HT29 colon
[22] = tested on: OVCAR-8 ovarian
[23] = tested on: A498 renal
[24] = tested on: BT-549 breast
[25] = tested on: RXF 393 renal
[26] = tested on: SK-MEL-28 melanoma
[27] = tested on: IGROV1 ovarian
[28] = tested on: SNB-75 CNS
[29] = tested on: SF-268 CNS
[30] = tested on: CCRF-CEM leukemia
[31] = tested on: MCF7 breast
[32] = tested on: SR leukemia
[33] = tested on: 786-0 renal
[34] = tested on: UACC-257 melanoma
[35] = tested on: NCI-H226 lung
[36] = tested on: SW-620 colon
[37] = tested on: TK-10 renal
[38] = tested on: MALME-3M melanoma
[39] = tested on: NCI-H460 lung
[40] = tested on: KM12 colon
[41] = tested on: HS 578T breast
[42] = tested on: HOP-92 NSCLC
[43] = tested on: LOX IMVI melanoma
[44] = tested on: A549 NSCLC
[45] = tested on: MDA-MB-231 breast
[46] = tested on: UO-31 renal
[47] = tested on: M14 melanoma
[48] = tested on: OVCAR-3 ovarian
[49] = tested on: SK-OV-3 ovarian
[50] = tested on: NCI-H522 lung
[51] = tested on: SN12C renal
[52] = tested on: RPMI-8226 leukemia
[53] = tested on: OVCAR-4 ovarian
[54] = tested on: COLO 205 colon
[55] = tested on: ACHN renal
[56] = tested on: EKVX NSCLC
[57] = tested on: SF-539 CNS
[58] = tested on: HCC-2998 colon

## Cc1cc2c(cc1Cl)S/C(=C/C(=O)O)C(Nc1cccc3nsnc13)=NS2(=O)=O
[1]
  GI50: 56.2 µM
  TGI: > 71 µM
[2]
  GI50: > 56.9 µM
  TGI: > 71.5 µM
[3]
  GI50: 70.1 µM
  TGI: > 100 µM
[4]
  GI50: 34.6 µM
  TGI: > 67.4 µM
[5]
  GI50: 35.2 µM
  TGI: > 61.7 µM
[6]
  GI50: 41 µM
  TGI: > 75.8 µM
[7]
  GI50: 35.6 µM
  TGI: > 71.7 µM
[8]
  GI50: > 77.8 µM
  TGI: > 100 µM
[9]
  GI50: > 58.6 µM
  TGI: > 77.8 µM
[10]
  GI50: 33.5 µM
  TGI: > 59.2 µM
[11]
  GI50: 43 µM
  TGI: > 66.2 µM
[12]
  GI50: > 40.2 µM
  TGI: > 58.9 µM
[13]
  GI50: > 52 µM
  TGI: > 66.8 µM
[14]
  GI50: > 16 µM
  TGI: > 57.3 µM
[15]
  GI50: 7.63 µM
  TGI: > 32.5 µM
[16]
  GI50: 33.4 µM
  TGI: > 58.5 µM
[17]
  GI50: > 54.8 µM
  TGI: > 66.9 µM
[18]
  GI50: 17.9 µM
  TGI: > 59.4 µM
[19]
  GI50: > 54.7 µM
  TGI: > 68.8 µM
[20]
  GI50: 56 µM
  TGI: > 76.6 µM
[21]
  GI50: 6.17 µM
  TGI: > 63.1 µM
[22]
  GI50: > 53.2 µM
  TGI: > 74.8 µM
[23]
  GI50: > 100 µM
  TGI: > 100 µM
[24]
  TGI: 1.38 µM
[25]
  GI50: > 52.7 µM
  TGI: > 68.5 µM
[26]
  GI50: 8.06 µM
  TGI: 19.4 µM
[27]
  GI50: > 49.9 µM
  TGI: > 78.3 µM
[28]
  GI50: > 100 µM
  TGI: > 100 µM
[29]
  GI50: 49.2 µM
  TGI: > 84.4 µM
[30]
  GI50: 22.5 µM
  TGI: > 81.9 µM
[31]
  GI50: 32.7 µM
  TGI: > 76.2 µM
[32]
  GI50: 32.8 µM
  TGI: > 100 µM
[33]
  GI50: 36.5 µM
  TGI: > 62.2 µM
[34]
  GI50: > 57.9 µM
  TGI: > 70.7 µM
[35]
  GI50: 32.1 µM
  TGI: > 68 µM
[36]
  GI50: 44.8 µM
  TGI: > 67.6 µM
[37]
  GI50: > 58 µM
  TGI: > 72.5 µM
[38]
  GI50: > 53.4 µM
  TGI: > 65.8 µM
[39]
  GI50: > 39.8 µM
  TGI: > 65.1 µM
[40]
  GI50: 50.6 µM
  TGI: > 65.3 µM
[41]
  GI50: 30.5 µM
  TGI: > 60.7 µM
[42]
  GI50: 28.2 µM
  TGI: 62 µM
[43]
  GI50: 53.4 µM
  TGI: > 70.1 µM
[44]
  GI50: > 51 µM
  TGI: > 81.3 µM
[45]
  GI50: 47.4 µM
  TGI: > 69.4 µM
[46]
  GI50: > 51.1 µM
  TGI: > 79.2 µM
[47]
  GI50: > 47 µM
  TGI: > 60.5 µM
[48]
  GI50: 47.5 µM
  TGI: > 69.8 µM
[49]
  GI50: > 49.5 µM
  TGI: > 62.5 µM
[50]
  GI50: 30.7 µM
  TGI: > 77.4 µM
[51]
  GI50: 27 µM
  TGI: > 53.4 µM
[52]
  GI50: 10.7 µM
  TGI: 40.6 µM
[53]
  GI50: 18.7 µM
  TGI: 42.7 µM
[54]
  GI50: > 48.3 µM
  TGI: > 61.5 µM
[55]
  GI50: > 52.3 µM
  TGI: > 64.9 µM
[56]
  GI50: > 10.5 µM
  TGI: > 19.9 µM

## C/C1=C\CC[C@@](C)(O)[C@@H]2C[C@H](CC/C(C)=C/CC1)C1(CC1)C(=O)O2
[1]
  GI50: 16.5 µM
  TGI: 35.1 µM
[2]
  GI50: 26.7 µM
  TGI: 85.6 µM
[3]
  GI50: 13.6 µM
  TGI: 46.6 µM
[57]
  GI50: 49.4 µM
  TGI: > 100 µM
[4]
  GI50: 54.9 µM
  TGI: > 100 µM
[5]
  GI50: 18.9 µM
  TGI: 48.7 µM
[6]
  GI50: 27.8 µM
  TGI: 69.4 µM
[7]
  GI50: 23 µM
  TGI: 57.1 µM
[8]
  GI50: 16.7 µM
  TGI: 67.2 µM
[9]
  GI50: 41.2 µM
  TGI: > 100 µM
[10]
  GI50: 24.2 µM
  TGI: 54.1 µM
[11]
  GI50: 15.2 µM
  TGI: 37.3 µM
[12]
  GI50: 28.3 µM
  TGI: > 100 µM
[13]
  GI50: 61.9 µM
  TGI: > 100 µM
[14]
  GI50: 41.8 µM
  TGI: > 100 µM
[15]
  GI50: 15.4 µM
  TGI: 33.4 µM
[16]
  GI50: 17.4 µM
  TGI: 35 µM
[17]
  GI50: 45.1 µM
  TGI: > 100 µM
[18]
  GI50: 15.5 µM
  TGI: 38.2 µM
[19]
  GI50: 30.2 µM
  TGI: > 100 µM
[20]
  GI50: 22.2 µM
  TGI: 50.2 µM
[21]
  GI50: 31.4 µM
  TGI: > 100 µM
[22]
  GI50: 61.5 µM
  TGI: > 100 µM
[24]
  GI50: 25.5 µM
  TGI: 69.7 µM
[25]
  GI50: > 100 µM
  TGI: > 100 µM
[26]
  GI50: 18 µM
  TGI: 41.3 µM
[27]
  GI50: 28.1 µM
  TGI: > 100 µM
[28]
  GI50: 30.8 µM
  TGI: > 100 µM
[29]
  GI50: 81.7 µM
  TGI: > 100 µM
[30]
  GI50: 76.1 µM
  TGI: > 100 µM
[31]
  GI50: 66.9 µM
  TGI: > 100 µM
[32]
  GI50: 28 µM
  TGI: 76.9 µM
[33]
  GI50: 44.6 µM
  TGI: > 100 µM
[34]
  GI50: 77.8 µM
  TGI: > 100 µM
[35]
  GI50: 25.8 µM
  TGI: 76.2 µM
[36]
  GI50: 27.1 µM
  TGI: 73.1 µM
[37]
  GI50: 29.6 µM
  TGI: 96.5 µM
[38]
  GI50: 21.6 µM
  TGI: 64.8 µM
[39]
  GI50: 51.5 µM
  TGI: > 100 µM
[40]
  GI50: 25.4 µM
  TGI: 68.5 µM
[41]
  GI50: 22.1 µM
  TGI: 60 µM
[43]
  GI50: 18.8 µM
  TGI: 34.5 µM
[44]
  GI50: 42.8 µM
  TGI: > 100 µM
[45]
  GI50: 13.6 µM
  TGI: 32.6 µM
[46]
  GI50: 46.5 µM
  TGI: > 100 µM
[58]
  GI50: 30.4 µM
  TGI: 66.6 µM
[47]
  GI50: 32.7 µM
  TGI: 91.6 µM
[48]
  GI50: 22 µM
  TGI: 47.4 µM
[49]
  GI50: 39 µM
  TGI: > 100 µM
[50]
  GI50: 35.1 µM
  TGI: > 100 µM
[51]
  GI50: 21.5 µM
  TGI: 56.2 µM
[52]
  GI50: 20.3 µM
  TGI: 46.4 µM
[53]
  GI50: 26.3 µM
  TGI: > 100 µM
[54]
  GI50: 15.6 µM
  TGI: 36.4 µM
[55]
  GI50: 34.4 µM
  TGI: > 100 µM
[56]
  GI50: 45.4 µM
  TGI: > 100 µM
